The values that follow come from patent US11161852B1 (Halia Therapeutics, Inc., priority 2020, dated 2021).

The subject of assay [1] is IL-1β release from THP-1 cells. In words: IL-1β Release Assay (PMA-differentiated THP-1 cells, LPS + nigericin). The settings on record: Homo sapiens, 250 ng/mL LPS, 20 μM nigericin. The format is cell-based. As to the method: Approximately 1.5 million THP-1 cells were plated in each well of a 6-well TC plate and incubated with 40 nM PMA in RPMI (10% FBS, 1% Penstrep) for 24 hours. The media was then removed and cells were rested in RPMI (10% FBS, 1% Penstrep) for 24 hours after which time the media was removed and cells were pre-treated for 2 hours with various concentrations of compounds of interest (typically serial 3-fold dilution in RPMI+5% FBS, concentrations ranging from 1 μM to 0.5 nM) in RPMI (5% FBS). The media was again removed and cells were incubated with 250 ng/mL LPS and compounds of interest (concentrations as above) in RMPI (5% FBS) for 2 hours. The media was removed for a last time and cells were incubated with 20 μM nigericin and compounds of interest (concentrations as above) in Opti-MEM for 30 minutes. Cell media was then collected and the amount of cleaved IL-1β was determined using a JESS instrument (Protein Simple) and standard protocols. Cleaved Il-1β antibody was obtained from Cell Signaling (catalogue #83186S) and was used at 1:20 dilution in antibody diluent 2. Protein Simple 1× anti-Rabbit HRP secondary antibody was used along with Protein Simple luminol and peroxide for chemiluminescent detection. Primary antibody incubation time was increased from 30 minutes to 60 minutes.

Assay [2] addresses full-length recombinant human NEK7 (Homo sapiens (Human), UniProt Q8TDX7). In words: NEK7 Enzymatic Assay ([33P]-ATP, casein substrate). The format is biochemical. Here is the method: Casein substrate (from bovine milk, hydrolyzed and partially dephosphorylated mixture of α, β and a caseins, obtained from Sigma Aldrich, catalogue #C4765, diluted in distilled water to a final concentration of 1 mg/mL) and full-length recombinant human NEK7 (expressed by baculovirus in Sf9 insect cells using a N-terminal GST tag, obtained from SignalChem, catalogue #N09-10G, 0.1 μg/μL) were mixed in assay buffer (20 mM Hepes pH 7.5, 10 mM MgCl2, 1 mM EGTA, 0.02% Brij35, 0.02 mg/ml BSA, 0.1 mM Na3VO4, 2 mM DTT, 1% DMSO). Compounds of interest (serial 3-fold dilution in DMSO from 10 μM to 0.5 nM) or vehicle (1% DMSO) were dispensed into the kinase reaction mixture by Acoustic technology (Echo550; nanoliter range). After incubation at room temperature for 20 minutes, the kinase reaction was initiated by addition of [^33P]-ATP (specific activity […]) and the mixture was incubated at room temperature for 2 hours. The reaction was then stopped by spotting the reaction mixture on strips of phosphocellulose P81 paper. Following washing, the radioactivity of the P81 paper was measured and kinase activity data were expressed as the percent remaining kinase activity in test samples compared to vehicle reactions. IC50 values and curve fits were obtained using Prism (GraphPad Software).

Chain of full-length recombinant human NEK7 (Q8TDX7 whole entry): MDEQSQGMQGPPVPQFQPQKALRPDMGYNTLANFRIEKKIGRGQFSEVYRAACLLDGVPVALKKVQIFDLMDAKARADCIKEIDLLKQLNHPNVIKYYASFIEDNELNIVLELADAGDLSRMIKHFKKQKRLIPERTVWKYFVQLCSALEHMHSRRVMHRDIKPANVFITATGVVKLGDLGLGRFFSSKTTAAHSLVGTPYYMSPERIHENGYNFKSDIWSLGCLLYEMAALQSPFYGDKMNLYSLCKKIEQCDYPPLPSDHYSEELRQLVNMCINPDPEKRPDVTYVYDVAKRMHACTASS

Usually IC50 stands for the midpoint of a concentration-inhibition curve. With `CC1(c2cc(NC(=O)Nc3ccc(-c4cn(C5CC5)c5ncnc(N)c45)cc3F)on2)CC1` [Example 17, 1-(4-(4-amino-7-cyclopropyl-7H-pyrrolo[2,3-d]pyrimidin-5-yl)-2-fluorophenyl)-3-(3-(1-methylcyclopropyl)isoxazol-5-yl)urea], the 50% inhibitory concentration (IC50) in assay [1] and in assay [2] was below 150 nM in each case.

As for `Nc1ncnc2c1c(-c1ccc(NC(=O)Nc3cc(C4(C(F)(F)F)CC4)no3)c(F)c1)cn2C1CC1` [Example 5, 1-(4-(4-amino-7-cyclopropyl-7H-pyrrolo[2,3-d]pyrimidin-5-yl)-2-fluorophenyl)-3-(3-(1-(trifluoromethyl)cyclopropyl)isoxazol-5-yl)urea], the concentration for half-maximal inhibition (IC50) in assay [1] and in assay [2] was below 150 nM throughout.

On to `CC1(c2cc(NC(=O)Nc3ccc(-c4cn(C5CC5)c5ncnc(N)c45)cc3F)on2)CCC1` [Example 34, 1-(4-(4-amino-7-cyclopropyl-7H-pyrrolo[2,3-d]pyrimidin-5-yl)-2-fluorophenyl)-3-(3-(1-methylcyclobutyl)isoxazol-5-yl)urea], for which the IC50 in assay [1] and in assay [2] was below 150 nM in each case.

Take `CCC(C)c1cc(NC(=O)Nc2ccc(-c3cn(C4CC4)c4ncnc(N)c34)cc2F)on1` (stereo not drawn) [Example 30, 1-(4-(4-amino-7-cyclopropyl-7H-pyrrolo[2,3-d]pyrimidin-5-yl)-2-fluorophenyl)-3-(3-(sec-butyl)isoxazol-5-yl)urea]: in assay [2], the IC50 lay in the range of 151 to 300 nM.

For the compound `Nc1ncnc2c1c(-c1ccc(NC(=O)Nc3cc(C4(C(F)(F)F)CCC4)on3)c(F)c1)cn2C1CC1` [Example 57, 1-(4-(4-amino-7-cyclopropyl-7H-pyrrolo[2,3-d]pyrimidin-5-yl)-2-fluorophenyl)-3-(5-(1-(trifluoromethyl)cyclobutyl)isoxazol-3-yl)urea], the half-maximal inhibitory concentration (IC50) in assay [2] is below 150 nM.

As for `Nc1ncnc2c1c(-c1cnc(NC(=O)Nc3cc(C4(C(F)(F)F)CC4)no3)nc1)cn2C1CC1` [Example 48, 1-(5-(4-amino-7-cyclopropyl-7H-pyrrolo[2,3-d]pyrimidin-5-yl)pyrimidin-2-yl)-3-(3-(1-(trifluoromethyl)cyclopropyl)isoxazol-5-yl)urea], the IC50 in assay [2] is above 1500 nM.

For the compound `CC(C)(C)c1cc(NC(=O)Nc2ccc(-c3cn(C4COC4)c4ncnc(N)c34)cc2)on1` [Example 1, 1-(4-(4-amino-7-(oxetan-3-yl)-7H-pyrrolo[2,3-d]pyrimidin-5-yl)phenyl)-3-(3-(tert-butyl)isoxazol-5-yl)urea], the IC50 in assay [2] was in the range of 151 to 300 nM.

`Cc1cc(-c2cn(C3CC3)c3ncnc(N)c23)ncc1NC(=O)Nc1cc(C2(C(F)(F)F)CC2)no1` [Example 40, 1-(6-(4-amino-7-cyclopropyl-7H-pyrrolo[2,3-d]pyrimidin-5-yl)-4-methylpyridin-3-yl)-3-(3-(1-(trifluoromethyl)cyclopropyl)isoxazol-5-yl)urea]: in assay [2], the half-inhibitory concentration (IC50) is above 1500 nM.

For `Nc1ncnc2c1c(-c1ccc(NC(=O)Nc3cc(C4(C(F)(F)F)CC4)no3)cc1F)cn2C1CC1` [Example 11, 1-(4-(4-amino-7-cyclopropyl-7H-pyrrolo[2,3-d]pyrimidin-5-yl)-3-fluorophenyl)-3-(3-(1-(trifluoromethyl)cyclopropyl)isoxazol-5-yl)urea], in assay [2], the half-inhibitory concentration (IC50) is 301 to 500 nM.

As for `CC(C)(O)Cn1cc(-c2ccc(NC(=O)Nc3cc(C4(C(F)(F)F)CC4)no3)nc2)c2c(N)ncnc21` [Example 46, 1-(5-(4-amino-7-(2-hydroxy-2-methylpropyl)-7H-pyrrolo[2,3-d]pyrimidin-5-yl)pyridin-2-yl)-3-(3-(1-(trifluoromethyl)cyclopropyl)isoxazol-5-yl)urea], the concentration for half-maximal inhibition (IC50) in assay [2] was below 150 nM.

Turning to `CCC(CC)c1cc(NC(=O)Nc2ccc(-c3cn(C4CC4)c4ncnc(N)c34)cc2F)on1` [Example 31, 1-(4-(4-amino-7-cyclopropyl-7H-pyrrolo[2,3-d]pyrimidin-5-yl)-2-fluorophenyl)-3-(3-(pentan-3-yl)isoxazol-5-yl)urea], in assay [2], the IC50 lay in the range of 301 to 500 nM.

Consider `Nc1ncnc2c1c(-c1cc(F)c(NC(=O)Nc3cc(C4(C(F)(F)F)CC4)no3)cc1F)cn2C1CC1` [Example 42, 1-(4-(4-amino-7-cyclopropyl-7H-pyrrolo[2,3-d]pyrimidin-5-yl)-2,5-difluorophenyl)-3-(3-(1-(trifluoromethyl)cyclopropyl)isoxazol-5-yl)urea], for which the IC50 in assay [2] was in the range of 501 to 1500 nM.

With `Nc1ncnc2c1c(-c1ccc(NC(=O)Nc3cc(C(F)(F)F)no3)c(F)c1)cn2C1CC1` [Example 28, 1-(4-(4-amino-7-cyclopropyl-7H-pyrrolo[2,3-d]pyrimidin-5-yl)-2-fluorophenyl)-3-(3-(trifluoromethyl)isoxazol-5-yl)urea], the IC50 in assay [2] is 151 to 300 nM.

`CC(C)(C)c1cc(NC(=O)NC2CCC(c3cn(C4CC4)c4ncnc(N)c34)CC2)on1` (stereo not drawn) [Example 16, 1-(4-(4-amino-7-cyclopropyl-7H-pyrrolo[2,3-d]pyrimidin-5-yl)cyclohexyl)-3-(3-(tert-butyl)isoxazol-5-yl)urea]: the 50% inhibitory concentration (IC50) in assay [2] was above 1500 nM.

Regarding `CC(C)(C)n1cnc(NC(=O)Nc2ccc(-c3cn(C4CC4)c4ncnc(N)c34)cc2F)n1` [Example 22, 1-(4-(4-amino-7-cyclopropyl-7H-pyrrolo[2,3-d]pyrimidin-5-yl)-2-fluorophenyl)-3-(1-(tert-butyl)-1H-1,2,4-triazol-3-yl)urea], the half-inhibitory concentration (IC50) in assay [2] is above 1500 nM.

As for `CC1(c2cc(NC(=O)Nc3ccc(-c4cn(C5CC5)c5ncnc(N)c45)cc3F)on2)COC1` [Example 27, 1-(4-(4-amino-7-cyclopropyl-7H-pyrrolo[2,3-d]pyrimidin-5-yl)-2-fluorophenyl)-3-(3-(3-methyloxetan-3-yl)isoxazol-5-yl)urea], the half-maximal inhibitory concentration (IC50) in assay [2] was below 150 nM.

For `Nc1ncnc2c1c(-c1ccc(NC(=O)Nc3cc(C4(C(F)(F)F)CC4)no3)c(F)c1)cn2-c1ccncc1` [Example 25], in assay [2], the IC50 lay in the range of 501 to 1500 nM.

Regarding `CC(C)(C)c1nnc(NC(=O)Nc2ccc(-c3cn(C4CC4)c4ncnc(N)c34)cc2F)o1` [Example 23, 1-(4-(4-amino-7-cyclopropyl-7H-pyrrolo[2,3-d]pyrimidin-5-yl)-2-fluorophenyl)-3-(5-(tert-butyl)-1,3,4-oxadiazol-2-yl)urea], the IC50 in assay [2] was in the range of 301 to 500 nM.

As for `CN1CCC(n2cc(-c3ccc(NC(=O)Nc4cc(C5(C(F)(F)F)CC5)no4)c(F)c3)c3c(N)ncnc32)CC1` [Example 26, 1-(4-(4-amino-7-(1-methylpiperidin-4-yl)-7H-pyrrolo[2,3-d]pyrimidin-5-yl)-2-fluorophenyl)-3-(3-(1-(trifluoromethyl)cyclopropyl)isoxazol-5-yl)urea], in assay [2], the IC50 lay in the range of 301 to 500 nM.

On to `CC(C)c1cc(NC(=O)Nc2ccc(-c3cn(C4CC4)c4ncnc(N)c34)cc2F)on1` [Example 32, 1-(4-(4-amino-7-cyclopropyl-7H-pyrrolo[2,3-d]pyrimidin-5-yl)-2-fluorophenyl)-3-(3-isopropylisoxazol-5-yl)urea], for which, in assay [2], the half-inhibitory concentration (IC50) was below 150 nM.

Regarding `CC(C)(C)c1nnc(NC(=O)Nc2ccc(-c3cn(C4CC4)c4ncnc(N)c34)cc2F)s1` [Example 19, 1-(4-(4-amino-7-cyclopropyl-7H-pyrrolo[2,3-d]pyrimidin-5-yl)-2-fluorophenyl)-3-(5-(tert-butyl)-1,3,4-thiadiazol-2-yl)urea], in assay [2], the IC50 was in the range of 301 to 500 nM.

Regarding `CC(C)(CO)c1cc(NC(=O)Nc2ccc(-c3cn(C4CC4)c4ncnc(N)c34)cc2F)on1` [Example 29, 1-(4-(4-amino-7-cyclopropyl-7H-pyrrolo[2,3-d]pyrimidin-5-yl)-2-fluorophenyl)-3-(3-(1-hydroxy-2-methylpropan-2-yl)isoxazol-5-yl)urea], the IC50 in assay [2] fell in the range of 301 to 500 nM.

Regarding `Nc1ncnc2c1c(-c1cc(F)c(NC(=O)Nc3cc(C4(C(F)(F)F)CC4)on3)c(F)c1)cn2C1CC1` [Example 60, 1-(4-(4-amino-7-cyclopropyl-7H-pyrrolo[2,3-d]pyrimidin-5-yl)-2,6-difluorophenyl)-3-(5-(1-(trifluoromethyl)cyclopropyl)isoxazol-3-yl)urea], the IC50 in assay [2] was above 1500 nM.

On to `Cc1cc(NC(=O)Nc2ccc(-c3cn(C4CC4)c4ncnc(N)c34)cc2F)no1` [Example 8, 1-(4-(4-amino-7-cyclopropyl-7H-pyrrolo[2,3-d]pyrimidin-5-yl)-2-fluorophenyl)-3-(5-methylisoxazol-3-yl)urea], for which, in assay [2], the IC50 was 501 to 1500 nM.
